Patent publication US20110038885A1, “CHEMOKINE ANALOGS” (priority 2007, published 2011)
Bridge positions count the residues as written; N and C are the ends. Square brackets hold non-standard residues; d marks the D form. Peptide text beside a SMILES is read from it. AEEA = NCCOCCOCC(=O)O; Aoc = NCCCCCCCC(=O)O

What was measured:
[1] = tested on: MCP-1; test: In vitro chemotaxis (trans-well migration) v MCP-1; type: cell-based, human
Summary of the method: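 Human THP-1 monocytes (10^4-10^6) with agent at varying concentrations in upper trans-well chamber; IL-8 or MCP-1 in lower chamber at a migration-inducing concentration, 37° C for e.g. 4 hours. Migrated cells quantified by MTT (595 nm) against a THP-1 standard curve; cytotoxicity and non-chemokine chemoattractant controls run.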

[2] = tested on: IL-8; test: In vitro chemotaxis, inhibition v IL-8; type: cell-based, human; design: concentration or dose not given beside the values
Method: To determine whether an agent inhibits a chemokine-induced activity, such as macrophage recruitment, varying amounts of the agent are mixed with cells in the presence of a known chemoattractant. For example, a range of known concentrations of an agent, e.g., a chemokine peptide, is incubated with a defined number (e.g., 10^4-10^6) of human THP-1 monocyte cells in individual wells of the top compartment of a trans-well plate. Chemokine, at a concentration known to cause significant migration of THP-1 cells in the trans-well migration assay, is placed in the lower compartment of a trans-well plate. Cells are then incubated at 37° C. for a period sufficient to allow migration, e.g., 4 hours. After incubation, the cells are gently removed from the top of the filter with a pipette, 20 μl of 20 mM EDTA in simple PBS is added into each top well, and incubated for 20 minutes at 4° C. The filter is carefully flushed with media using a gentle flow, and removed. A standard curve consisting of a two-fold dilution series of THP-1 cells (in 29 μl) is placed to accurately quantify the number of cells that have migrated. Migrated cells are stained with 3 μl of MTT stock dye solution which is added directly into each well (5 mg/ml in RPMI-1640 without phenol red) (Sigma Chemical Co., St. Louis, Mo., USA) and incubated at 37° C. for 4 hours. The media is carefully aspirated from each well, and the converted dye is solubilized by 20 μl of DMSO. Absorbance of converted dye is measured at a wavelength of 595 nm using an ELISA plate reader. The number of migrated cells in each well is then determined by interpolation of the standard curve (see also Imai et al., J. Biol. Chem., 272:15036, 1997). Any method suitable for counting cells can be used, for example, counting with a hemocytometer, incubation of the cells with MTT (see above), or FACS analysis. A negative control assay is also performed, using TGFβ or another non-chemokine chemoattractant (e.g., IL1β or TNFα). To assess whether the agent is cytotoxic, the same concentrations of agent are incubated with THP-1 cells. Agents which 1) are not cytotoxic at levels which inhibit migration, 2) are ineffective at inhibiting the negative control-induced migration, and 3) reduce or inhibit chemokine-induced THP-1 migration, are agents which fall within the scope of the invention.

CC[C@H](C)[C@@H]1NC(=O)[C@H](Cc2c[nH]c3ccccc23)NC(=O)[C@H](CCCCN)NC(=O)[C@H](CCC(N)=O)NC(=O)[C@H](CCCCN)NC(=O)[C@@H]2CCCN2C(=O)[C@H](CC(=O)O)NC(=O)[C@H](CC(C)C)NC(=O)[C@H](N)CSSC[C@H](C(N)=O)NC(=O)[C@H](CCC(N)=O)NC1=O [Example 37, c(D-Cys-Leu-Asp-Pro-Lys-Gln-Lys-Trp-Ile-Gln-D-Cys)-NH2] (H-[dC]LDPKQKWIQ[dC]-NH2; disulfide 1-11)
EC50 [1]: > 1000 nM | v IL-8 inhibition (%) [2]: −14.7%

CC[C@H](C)[C@@H]1NC(=O)[C@H](Cc2c[nH]c3ccccc23)NC(=O)[C@H](CCCCN)NC(=O)[C@H](CCC(N)=O)NC(=O)[C@H](CCCCN)NC(=O)[C@@H](NC(=O)[C@@H]2CCCN2C(=O)[C@H](CC(=O)O)NC(=O)[C@@H](N)CC(C)C)CSSC[C@@H](C(N)=O)NC(=O)[C@H](CCC(N)=O)NC1=O [Example 38, Leu-Asp-Pro-c(Cys-Lys-Gln-Lys-Trp-Ile-Gln-Cys)-NH2] (H-LDPCKQKWIQC-NH2; disulfide 4-11)
EC50 [1]: > 1000 nM | v IL-8 inhibition (%) [2]: −12%

CC[C@H](C)[C@@H]1NC(=O)[C@H](Cc2c[nH]c3ccccc23)NC(=O)[C@H](CCCCN)NC(=O)[C@H](CCC(N)=O)NC(=O)[C@H](CCCCN)NC(=O)[C@@H]2CCCN2C(=O)[C@H](CC(=O)O)NC(=O)[C@H](CC(C)C)NC(=O)[C@H](N)CSSC[C@@H](C(N)=O)NC(=O)[C@H](CCC(N)=O)NC1=O [Example 39, c(D-Cys-Leu-Asp-Pro-Lys-Gln-Lys-Trp-Ile-Gln-Cys)-NH2] (H-[dC]LDPKQKWIQC-NH2; disulfide 1-11)
EC50 [1]: > 1000 nM | v IL-8 inhibition (%) [2]: 3.8%

CC[C@H](C)[C@@H]1NC(=O)[C@H](Cc2c[nH]c3ccccc23)NC(=O)[C@H](CCCCN)NC(=O)[C@H](CCC(N)=O)NC(=O)[C@H](CCCCN)NC(=O)[C@@H](NC(=O)[C@@H]2CCCN2C(=O)[C@@H](N)CC(=O)O)CSSC[C@@H](C(N)=O)NC(=O)[C@H](CCC(N)=O)NC1=O [Example 40, Asp-Pro-c(Cys-Lys-Gln-Lys-Trp-Ile-Gln-Cys)-NH2] (H-DPCKQKWIQC-NH2; disulfide 3-10)
EC50 [1]: 7 nM | v IL-8 inhibition (%) [2]: 113.5%

CC[C@H](C)[C@@H]1NC(=O)[C@H](Cc2c[nH]c3ccccc23)NC(=O)[C@H](CCCCN)NC(=O)[C@H](CCC(N)=O)NC(=O)[C@@H](NC(=O)[C@H](CCCCN)NC(=O)[C@@H]2CCCN2C(=O)[C@@H](N)CC(=O)O)CSSC[C@@H](C(N)=O)NC(=O)[C@H](CCC(N)=O)NC1=O [Example 41, Asp-Pro-Lys-c(Cys-Gln-Lys-Trp-Ile-Gln-Cys)-NH2] (H-DPKCQKWIQC-NH2; disulfide 4-10)
EC50 [1]: 80 nM | v IL-8 inhibition (%) [2]: 67.8%

CC[C@H](C)[C@@H]1NC(=O)[C@H](Cc2c[nH]c3ccccc23)NC(=O)[C@H](CCCCN)NC(=O)[C@H](CCC(N)=O)NC(=O)[C@H](CCCCN)NC(=O)[C@@H]2CCCN2C(=O)[C@H](CC(=O)O)NC(=O)[C@@H](N)CSSC[C@@H](C(N)=O)NC(=O)[C@H](CCC(N)=O)NC1=O [Example 42, c(Cys-Asp-Pro-Lys-Gln-Lys-Trp-Ile-Gln-Cys)-NH2] (H-CDPKQKWIQC-NH2; disulfide 1-10)
EC50 [1]: 25 nM | v IL-8 inhibition (%) [2]: 94.4%

CC[C@H](C)[C@@H]1NC(=O)[C@H](Cc2c[nH]c3ccccc23)NC(=O)[C@H](CCCCN)NC(=O)[C@H](CCC(N)=O)NC(=O)[C@H](CCCCN)NC(=O)[C@@H](NC(=O)[C@@H]2CCCN2)CSSC[C@@H](C(N)=O)NC(=O)[C@H](CCC(N)=O)NC1=O [Example 43, Pro-c(Cys-Lys-Gln-Lys-Trp-Ile-Gln-Cys)-NH2] (H-PCKQKWIQC-NH2; disulfide 2-9)
EC50 [1]: 600 nM | v IL-8 inhibition (%) [2]: 21.9%

CC[C@H](C)[C@@H]1NC(=O)[C@H](Cc2c[nH]c3ccccc23)NC(=O)[C@H](CCCCN)NC(=O)[C@H](CCC(N)=O)NC(=O)[C@@H](NC(=O)[C@H](CCCCN)NC(=O)[C@@H]2CCCN2)CSSC[C@@H](C(N)=O)NC(=O)[C@H](CCC(N)=O)NC1=O [Example 44, Pro-Lys-c(Cys-Gln-Lys-Trp-Ile-Gln-Cys)-NH2] (H-PKCQKWIQC-NH2; disulfide 3-9)
EC50 [1]: 1000 nM | v IL-8 inhibition (%) [2]: 12.9%

CC[C@H](C)[C@@H]1NC(=O)[C@H](Cc2c[nH]c3ccccc23)NC(=O)[C@H](CCCCN)NC(=O)[C@@H](NC(=O)[C@H](CCC(N)=O)NC(=O)[C@H](CCCCN)NC(=O)[C@@H]2CCCN2)CSSC[C@@H](C(N)=O)NC(=O)[C@H](CCC(N)=O)NC1=O [Example 45, Pro-Lys-Gln-c(Cys-Lys-Trp-Ile-Gln-Cys)-NH2] (H-PKQCKWIQC-NH2; disulfide 4-9)
EC50 [1]: 150 nM | v IL-8 inhibition (%) [2]: 74.2%

CC[C@H](C)[C@@H]1NC(=O)[C@H](Cc2c[nH]c3ccccc23)NC(=O)[C@H](CCCCN)NC(=O)[C@H](CCC(N)=O)NC(=O)[C@H](CCCCN)NC(=O)[C@@H]2CCCN2C(=O)[C@@H](N)CSSC[C@@H](C(N)=O)NC(=O)[C@H](CCC(N)=O)NC1=O [Example 46, c(Cys-Pro-Lys-Gln-Lys-Trp-Ile-Gln-Cys)-NH2] (H-CPKQKWIQC-NH2; disulfide 1-9)
EC50 [1]: 150 nM | v IL-8 inhibition (%) [2]: 52.4%

CC[C@H](C)[C@@H]1NC(=O)[C@H](Cc2c[nH]c3ccccc23)NC(=O)[C@H](CCCCN)NC(=O)[C@H](CCC(N)=O)NC(=O)[C@@H](NC(=O)[C@@H](N)CCCCN)CSSC[C@@H](C(N)=O)NC(=O)[C@H](CCC(N)=O)NC1=O [Example 47, Lys-c(Cys-Gln-Lys-Trp-Ile-Gln-Cys)-NH2] (H-KCQKWIQC-NH2; disulfide 2-8)
EC50 [1]: 20 nM | v IL-8 inhibition (%) [2]: 103.2%

CC[C@H](C)[C@@H]1NC(=O)[C@H](Cc2c[nH]c3ccccc23)NC(=O)[C@H](CCCCN)NC(=O)[C@H](CCC(N)=O)NC(=O)[C@H](CCCCN)NC(=O)[C@@H](N)CSSC[C@@H](C(N)=O)NC(=O)[C@H](CCC(N)=O)NC1=O [Example 49, c(Cys-Lys-Gln-Lys-Trp-Ile-Gln-Cys)-NH2] (H-CKQKWIQC-NH2; disulfide 1-8)
EC50 [1]: 100 nM | v IL-8 inhibition (%) [2]: 72.6%

CC[C@H](C)[C@@H]1NC(=O)[C@H](Cc2c[nH]c3ccccc23)NC(=O)[C@H](CCCCN)NC(=O)[C@H](CCC(N)=O)NC(=O)[C@@H](N)CSSC[C@@H](C(N)=O)NC(=O)[C@H](CCC(N)=O)NC1=O [Example 50, c(Cys-Gln-Lys-Trp-Ile-Gln-Cys)-NH2] (H-CQKWIQC-NH2; disulfide 1-7)
EC50 [1]: 25 nM | v IL-8 inhibition (%) [2]: 104.8%

CC[C@H](C)[C@@H]1NC(=O)[C@H](Cc2c[nH]c3ccccc23)NC(=O)[C@@H](NC(=O)[C@@H](N)CCCCN)CSSC[C@@H](C(N)=O)NC(=O)[C@H](CCC(N)=O)NC1=O [Example 51, Lys-c(Cys-Trp-Ile-Gln-Cys)-NH2] (H-KCWIQC-NH2; disulfide 2-6)
EC50 [1]: 80 nM | v IL-8 inhibition (%) [2]: 115.9%

CC[C@@H](C)[C@H]1NC(=O)[C@@H](CCC(N)=O)NC(=O)[C@H](N)CSSC[C@H](C(=O)NCCOCCOCC(=O)NCCCCCCCC(=O)O)NC(=O)[C@@H](CC(C)C)NC(=O)[C@@H](CC(=O)O)NC(=O)[C@H]2CCCN2C(=O)[C@@H](CCCCN)NC(=O)[C@@H](CCC(N)=O)NC(=O)[C@@H](CCCCN)NC(=O)[C@@H](Cc2c[nH]c3ccccc23)NC1=O [Example 138, c(D-Cys-D-Gln-D-Ile-D-Trp-D-Lys-D-Gln-D-Lys-D-Pro-D-Asp-D-Leu-D-Cys)-Doc-Aoc-OH] (H-[dC][dQ][dI][dW][dK][dQ][dK][dP][dD][dL][dC][AEEA][Aoc]-OH; disulfide 1-11)
EC50 [1]: 20 nM | v IL-8 inhibition (%) [2]: 98.4%
